Experimental data from PubChem BioAssay AID977621 (Broad Institute, 2014).
Inconclusive results are not listed. The source made the active and inactive calls.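 Rule for the calls: active = Wild-type ribosome reporter drop at least double the humanized mutant ribosome reporter drop, growth loss under a set limit; inconclusive = no clear call, values can overlap the other calls; inactive = the rest.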

System: E. coli wild-type GFP strain growth, fluorescence, 24 h
Experiment: wild-type E. coli growth inhibition versus H69 humanized strain – H69 mutant RFP, wild-type GFP, cherry-pick, dose response (AID 977621);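 note: wild-type GFP and H69 mutant RFP strains grown together 50/50 in each well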
[1] = E. coli mixed culture, 24 h, measured here: total growth OD600, test 2

| SMILES | AC50 | AC50 [1] [µM] |
| --- | --- | --- |
| O=C(O)CC1(CC(=O)NCc2ccc(-c3cccs3)cc2)CCCCC1 | > 100 µM (inactive) |  |
| C[C@@H]1CN([C@@H](C)CO)C(=O)c2cc(NS(=O)(=O)c3ccccc3)ccc2O[C@@H]1CN(C)Cc1ccc(C(=O)Nc2ccccc2N)cc1 |  | 50.6 |
| CN1C(=O)c2cc(NC(=O)c3cccc(F)c3)ccc2OC[C@H]2O[C@@H](CC(=O)N3CCc4ccccc4C3)CC[C@@H]21 | > 100 µM (inactive) |  |
| CC1Cc2ccccc2N1C(=O)CN1C(=O)NC(C)(CCc2ccccc2)C1=O (centres undefined) |  | > 100 |
| O=C(CN1CCN(S(=O)(=O)c2ccc(Cl)cc2)CC1)Nc1ccc2c(c1)CCC2 |  | > 100 |
| CSc1ccccc1OCc1cc(C(=O)N[C@H]2CCCCNC2=O)no1 | > 100 µM (inactive) |  |
| N#Cc1cccc(-c2ccc3c(c2)[C@H]2[C@H](CCN2C(=O)c2ccccc2F)[C@H](CO)N3)c1 | > 100 µM (inactive) |  |
| CCCN(CC(=O)Nc1ccccc1C)C(=O)c1cccc(S(=O)(=O)N2CCc3ccccc3C2)c1 | > 100 µM (inactive) | 40.8 |
| Cc1ccc(-c2nc3ccc(NS(=O)(=O)c4ccccc4)cc3[nH]2)o1 | > 100 µM (inactive) |  |
| C[C@@H]1CN([C@H](C)CO)C(=O)c2cccc(NC(=O)c3ccncc3)c2O[C@@H]1CN(C)S(=O)(=O)c1ccc(Cl)cc1 | > 100 µM (inactive) | > 100 |
| Nc1nc(SCc2ccccc2)c2ncn(Cc3ccccc3)c2n1 | > 100 µM (inactive) | 41.2 |
| CCOC(=O)c1c(NC(=O)CN2CCC(C)CC2)sc(C)c1C |  | 48.5 |
| COc1cccc(NC(=O)C(c2ccccc2)N2CCN(c3ccccn3)CC2)c1 (centres undefined) |  | > 100 |
| COc1cccc(NS(=O)(=O)c2ccc(-c3coc(C)n3)cc2)c1 | > 100 µM (inactive) | 3.29 |
| Cc1ccccc1OCc1nc2ccccc2n1C | > 100 µM (inactive) |  |
| COc1ccc(CC(=O)NC(C)c2ccc3ccccc3c2)cc1 (centres undefined) | > 100 µM (inactive) |  |
| Fc1cccc(Cc2noc(CN3CCCCC3CCc3ccccn3)n2)c1 (centres undefined) | > 100 µM (inactive) | > 100 |
| CCOC(=O)c1cnc2c(cnn2C)c1NCc1ccc(OC)cc1 | > 100 µM (inactive) | > 100 |
| COc1ccc(CC(=O)Oc2ccc(C)cc2C)cc1 |  | > 100 |
| C[C@H](CO)N1C[C@H](C)[C@H](CN(C)C(=O)Nc2ccc3c(c2)OCO3)Oc2c(NC(=O)Nc3ccccc3)cccc2C1=O |  | 48.4 |
| CCCCNc1ccc2c(c1)OC[C@@H](Cc1ccccc1)NS2(=O)=O | > 100 µM (inactive) | 32.4 |
| Cc1cc(-c2ccc(C)c(S(=O)(=O)NC(C)Cc3ccco3)c2)on1 (centres undefined) | > 100 µM (inactive) | 31 |

| SMILES | AC50 | AC50 [1] [µM] |
| --- | --- | --- |
| O=C(Cc1coc2cc(O)ccc12)N1CCN(S(=O)(=O)c2ccc(Br)cc2)CC1 | > 100 µM (inactive) | 42.2 |
| CCC(=O)Nc1sc(Cc2ccc3c(c2)OCO3)c(C)c1C(N)=O | > 100 µM (inactive) | 51.4 |
| COc1ccc(OC)c(C(=O)COC(=O)c2ccc([N+](=O)[O-])o2)c1 | > 100 µM (inactive) | > 100 |
| C[C@H](CO)N1C[C@H](C)[C@@H](CN(C)Cc2ccncc2)OCc2ccccc2-c2c(n(C)c3ccccc23)C1=O |  | 40.2 |
| Cc1ccc(Oc2ccc(S(=O)(=O)N3CCOCC3)cc2C(N)=O)cc1C | > 100 µM (inactive) |  |
| Cc1cc(NC(=O)CN2CCN(c3cccc(Cl)c3)CC2)no1 | > 100 µM (inactive) |  |
| C[C@@H]1CN([C@@H](C)CO)C(=O)c2cccc(NC(=O)Nc3ccccc3)c2O[C@@H]1CN(C)S(=O)(=O)c1ccc(Cl)cc1 | > 100 µM (inactive) | 37.7 |
| Nc1nn(-c2ccccc2)c2ccc([N+](=O)[O-])cc12 | > 100 µM (inactive) |  |
| CS(=O)(=O)N(CC(=O)N1CCc2ccccc2C1)c1ccc(Br)cc1 | > 100 µM (inactive) | 33.1 |
| Cc1noc(C)c1NC(=O)Nc1ccc2c(c1)C(=O)N([C@H](C)CO)C[C@H](C)[C@@H](CN(C)C(=O)Nc1ccc3c(c1)OCO3)OCCCC[C@@H](C)O2 |  | > 92 |
| O=c1[nH]nc(SCc2ccccc2)n1C1CC2C=CC1C2 (centres undefined) |  | 40.6 |
| O=C(NCc1cccnc1)c1ccc(COc2ccc3c(c2)CCC3)o1 | > 100 µM (inactive) |  |
| O=C(COC(=O)C12CC3CC(CC(O)(C3)C1)C2)NCCc1ccc(Cl)cc1 | > 100 µM (inactive) |  |
| COc1cccc(OCCNS(=O)(=O)c2ccccc2[N+](=O)[O-])c1 | > 100 µM (inactive) |  |
| Clc1ccc(-c2nc(NCCCN3CCOCC3)c3ccccc3n2)cc1 | > 100 µM (inactive) |  |
| O=c1c2ccccc2nc(SCc2ccccc2)n1CC1CCCO1 (centres undefined) |  | 51.1 |
| COC(=O)COc1ccc(Cl)cc1C1Nc2ccccc2C(=O)N1c1ccc(OC)cc1 (centres undefined) | > 100 µM (inactive) | > 100 |
| Cc1cccc(OCCC(=O)N(C)CC(=O)Nc2cccc3ccccc23)c1 | > 100 µM (inactive) |  |
| COc1ccc(OC)c(NC(=O)c2c3c(nc4ccccc24)CCC3)c1 | > 100 µM (inactive) |  |
| O=C(Nc1ccc2c(c1)OCO2)c1cc(-c2ccncc2)nc2ccccc12 | > 100 µM (inactive) |  |
| COc1cccc(NC(=O)C2CCC(CNS(=O)(=O)c3cccs3)CC2)c1 (centres undefined) | > 100 µM (inactive) |  |
| Cc1cccc(OCc2nnc(SCC(=O)Nc3ncc(C)s3)o2)c1 | > 100 µM (inactive) | > 100 |

| SMILES | AC50 | AC50 [1] [µM] |
| --- | --- | --- |
| CC1CCN(c2ccc3nnc(CCC(=O)Nc4cccc(F)c4)n3n2)CC1 | > 100 µM (inactive) | > 100 |
| O=C(CN1CCN(c2ccc(O)cc2)CC1)Nc1cc(S(=O)(=O)N2CCCC2)ccc1Cl | > 100 µM (inactive) |  |
| CCN(CC)C(=O)c1ccc(COc2ccccc2Cl)o1 |  | > 100 |
| O=[N+]([O-])c1ccc(N2CCOCC2)c2c1no[n+]2[O-] | > 100 µM (inactive) |  |
| CSc1nc2ccc(NS(=O)(=O)c3ccc([N+](=O)[O-])cc3)cc2s1 |  | < 0.6 |
| O=C(c1cc2cc(F)ccc2[nH]1)N1CCN(Cc2ccc3c(c2)OCO3)CC1 | > 100 µM (inactive) | 24.5 |
| CCc1cc2cc(OC)ccc2nc1SCC(=O)Nc1cc(OC)c(OC)cc1C(=O)O |  | > 100 |
| O=S1(=O)N[C@@H](Cc2ccccc2)COc2cc(N3CCC[C@H]3CO)ccc21 | > 100 µM (inactive) |  |
| OC[C@H]1[C@H](c2ccc(-c3ccc(F)cc3)cc2)[C@@H]2CN(Cc3ccncc3)CCCCN12 | > 100 µM (inactive) |  |
| CCc1ccc2nc(SCC(=O)Nc3ccccc3N3CCOCC3)c(C#N)cc2c1 |  | > 100 |
| CC(NC(=O)C12CC3CC(C)(CC(C)(C3)C1)C2)c1ccncc1 (centres undefined) |  | > 100 |
| Cc1ccc(NC(=O)c2ccc(Br)o2)cc1S(=O)(=O)N(C)C | > 100 µM (inactive) | > 100 |
| CCN(c1ccccc1)S(=O)(=O)c1ccc(Cl)c(NC(=O)CSc2n[nH]c(N)n2)c1 | > 100 µM (inactive) |  |
| COc1ccc(C2=Nc3ccccc3NC(=O)C2N(C(=O)c2ccnc3ccccc23)c2ccccc2)cc1 (centres undefined) | > 100 µM (inactive) | 34 |
| O=C(Nc1ccc(Cl)cn1)c1cc2c(s1)-c1ccccc1OC2 |  | > 100 |
| CCN(CC)CCN(C(=O)c1ccc2c(c1)CCCC2)c1nc2ccc(F)cc2s1 |  | 32.5 |
| CSc1ccccc1NC(=O)c1ccccc1N(Cc1ccccc1)S(C)(=O)=O |  | > 100 |
| CCN(c1ccccc1)S(=O)(=O)c1ccc(OC)c(OC)c1 | > 100 µM (inactive) | > 100 |
| COc1ccc(OC)c(NC(=O)COC(=O)C2CCN(C(=O)c3ccc(Cl)cc3)CC2)c1 |  | > 100 |
| O=C(NCc1nnnn1-c1ccc(Cl)cc1)c1ccc([N+](=O)[O-])o1 | > 100 µM (inactive) |  |
| O=C(NCc1ccco1)c1ccc2ccccc2n1 |  | > 100 |
| COc1ccccc1C1CCN(Cc2cccc([N+](=O)[O-])c2)CC1 | > 100 µM (inactive) | > 100 |

| SMILES | AC50 | AC50 [1] [µM] |
| --- | --- | --- |
| CN(CCOc1ccccc1)S(=O)(=O)c1ccccc1C#N |  | > 100 |
| O=C(CSc1nnc(-c2ccccc2F)n1C1CC1)Nc1cccnc1Cl |  | > 100 |
| COc1ccc([C@H]2C[C@H](O)C[C@@H](CCn3cc(-c4ccccc4)nn3)O2)cc1 | > 100 µM (inactive) | > 100 |
| O=C(Cc1ccc(NC(=O)C2CCCN(C(=O)CCc3ccccc3)C2)cc1)Nc1cccc(C(=O)N2CCCC2)c1 (centres undefined) | > 100 µM (inactive) | > 100 |
| O=C(c1ccc(N2CCCCC2)c([N+](=O)[O-])c1)N1CCN(c2ccccn2)CC1 | > 100 µM (inactive) | > 100 |
| CC1Cc2cc(S(=O)(=O)N3CCN(c4cccc(Cl)c4)CC3)ccc2N1C(=O)C1CC1 (centres undefined) |  | > 100 |
| COc1ccc(CNC(=O)Cc2cn(C)c3ccccc23)c(OC)c1 |  | > 100 |
| Cc1ccc2c(c1C)OC(=O)CC2c1ccccc1 (centres undefined) | > 100 µM (inactive) |  |
| Cc1cc(C)c(NC(=O)C(C)c2cccc(C(=O)c3ccccc3)c2)c(C)c1 (centres undefined) |  | 47.2 |
| Cc1ccc2nc(SCC(=O)c3ccc(O)cc3O)[nH]c2c1 | > 100 µM (inactive) |  |
| CCN(C(=O)COC(=O)c1ccc([N+](=O)[O-])o1)c1cccc2ccccc12 | > 100 µM (inactive) |  |
| COc1ccc(CNc2ncnc3cc(OC)c(OC)cc23)cc1OC | > 100 µM (inactive) |  |
| CCC(C(=O)Nc1ccsc1C(=O)OC)c1ccccc1 (centres undefined) |  | 49.2 |
| Oc1ccc2c3c1OC1c4oc5ccccc5c4C[C@@]4(O)[C@@H](C2)N(CC2CC2)CC[C@]314 (some centres undefined) | > 100 µM (inactive) |  |
| COc1cccc(-c2ccc([C@@H]3[C@H](CO)N4CCCCN(S(=O)(=O)c5cccs5)C[C@@H]34)cc2)c1 | > 100 µM (inactive) | 33.5 |
| COc1cc(OC)c(NS(=O)(=O)c2cccc(C(=O)OCC(=O)NCC3CCCO3)c2)cc1Cl (centres undefined) |  | > 100 |
| O=C(CC1C(=O)N(c2ccc(Cl)cc2)C(=S)N1CCc1ccncc1)Nc1ccc(F)cc1 (centres undefined) |  | 36.4 |
| CCOc1ccccc1C(=O)OCC(=O)NCCc1ccc(OC)cc1 | > 100 µM (inactive) |  |
| CCCCSc1nc(N)c(C#N)c(-c2cccs2)c1C#N | > 100 µM (inactive) |  |
| O=C(Cn1cc(C(=O)c2ccco2)c2ccccc21)Nc1ccccc1F | > 100 µM (inactive) |  |
| CSc1ccccc1C(=O)NCCc1ccc(S(=O)(=O)N2CCCCC2)cc1 | > 100 µM (inactive) |  |
| CCOC(=O)c1nc(C)sc1-c1ccnn1S(=O)(=O)c1cccc(Cl)c1 | > 100 µM (inactive) | 45.7 |
